Data from patent publication US8940302B2, “Predicting response to a HER inhibitor” (Genentech, Inc., priority 2007, dated 2015).

Experiments:
[1] = test system: platinum-resistant ovarian cancer, primary peritoneal carcinoma, or fallopian tube carcinoma; assay: Randomized trial of gemcitabine + pertuzumab vs gemcitabine + placebo, PFS and OS by qRT-PCR HER3 (Examples 1 and 4); assay type: in vivo, human
Description: Patients who had progressed while receiving, or within 6 months of receiving, a platinum-based chemotherapy regimen were eligible for this study. Patients were randomized to receive either gemcitabine in combination with pertuzumab, or gemcitabine in combination with placebo. Patients treated herein included those who had not received a previous salvage regimen treatment for platinum-resistant disease prior to study entry, and those who had received one prior regimen for platinum-resistant disease. Gemcitabine was administered at 1000 mg/m^2 on days 1 and 8 of each 21 day cycle. Gemcitabine was infused first over 30 minutes. Dose reductions were permitted for toxicity. […] Subjects without progressive disease received treatment for up to 17 cycles, or 1 year. Patients had standard gemcitabine dose reduction and held doses as a result of cytopenias. […] Subsequent doses were at the reduced doses and were not increased. If dose reduction or holding a dose was required in more than 4 occasions, or if doses were held for more than 3 weeks, then gemcitabine was discontinued and with the approval of the treating physician and medical monitor, blinded drug was continued until disease progression. If Day 8 gemcitabine doses were held, then the Day 8 dose was omitted and the subsequent treatment was commenced with the next cycle (Day 22 of the previous cycle). Response was assessed at the end of Cycles 2, 4, 6, 8, 12 and 17. Measurable disease was assessed using the Response Evaluation Criteria for Solid Tumors (RECIST), by clinical evaluation and CT scan or equivalent. Response for subjects with evaluable disease was assessed according to changes to CA-125 and clinical and radiologic evidence of disease. Responses were confirmed 4-8 weeks after the initial documentation of response. The following outcome measures were assessed. Progression free survival, as determined by investigator assessment using RECIST or CA-125 changes, following initiation of assigned study treatment of all subjects in each arm. Formalin-fixed, paraffin embedded tissue (FFPET) samples obtained from the patients in this clinical trial were analyzed for EGFR, HER2, HER3, two HER ligands (amphiregulin and betacellulin), and G6PDH (a housekeeping gene) by qRT-PCR. The qRT-PCR assay was performed by TARGOS Molecular Pathology GmbH (Kassel, Germany) using Roche Diagnostic's lab lot kits. The workflow and analysis for performing the qRT-PCR assay on the clinical samples are depicted in FIGS. 27 and 28 herein. The efficacy results were assessed at 7.1 months median follow-up (range 1.3-20.3). There were 101 progression free survival (PFS) events at that time. […] P-values were estimated using stratified Cox model and stratified log-rank test by randomization stratification factors (ECOG PS, number of prior regimens for platinum resistant disease, and disease measurability). Patients with CDDP-R EOC were randomized to G+P or G+placebo. Treatment was given until progression or until unacceptable toxicity. The primary endpoint was PFS. A secondary objective was to evaluate efficacy outcomes in patients with HER2 activation-related expression profiles. A qRT-PCR assay using archival formalin-fixed paraffin-embedded tissue (FFPET), preformed as described above, allowed mRNA expression analysis of HER pathway genes, including HER1, HER2, HER3, amphiregulin, and betacellulin. Outcomes were described by low gene expression (<median) and by high gene expression (≧median).

[2] = test system: incurable, locally advanced, recurrent or metastatic solid tumors; details: cited from earlier work
[3] = test system: platinum-sensitive recurrent ovarian cancer; assay: Randomized open-label Phase II study of pertuzumab with carboplatin-based standard chemotherapy (Example 3); assay type: in vivo, human; details: FIGS. 32-35
Description: In this randomized, open-label Phase II clinical study, the efficacy and safety of pertuzumab treatment in combination with carboplatin-based standard chemotherapy was investigated in patients with platinum-sensitive recurrent ovarian cancer. The target sample size is 100-500 individuals. Target sample size is 148. Inclusion Criteria: • histologically confirmed ovarian, primary peritoneal, or fallopian tube cancer; • only 1 previous regimen, which must be platinum-based; • platinum-sensitive disease which is defined by a progression-free interval of greater than 6 months after completion of platinum-based chemotherapy. Exclusion Criteria: • previous radiotherapy; • previous treatment with an anti-cancer vaccine or any targeted therapy; • major surgery or traumatic injury within 4 weeks of study; • history or evidence of central nervous system metastases.

[4] = test system: advanced, refractory, or recurrent ovarian cancer; assay: Single arm phase II trial of single agent pertuzumab, PFS and OS by HER3 qRT-PCR (Example 2); assay type: in vivo, human; details: for median survival: single agent pertuzumab, FIG. 25
Procedure: This example concerns a single arm, open label, multicenter phase II clinical trial of ovarian cancer patients. […] Tumor assessments were obtained after 2, 4, 6, 8, 12 and 16 cycles. Response Rate (RR) by RECIST was the primary endpoint. Safety and tolerability were additionally evaluated. Secondary endpoints were TTP, duration of response, duration of survival, pharmacokinetics (PK), and FOSI (cohort 2). qRT-PCR assays were performed on archived formalin fixed paraffin embedded tissue. Assay data is available for 46/117 patients. Here high HER3 expressors were in the greater than and equal to 75th percentile, while low HER3 expressors were in the less than 75th percentile.

[5] = in vivo; cited from earlier work

| Compound | OS (median months) ([1]; All Patients (n = 130)) | PFS (median months) ([1]; All Patients (n = 130)) | OS (median months) ([1]; High HER3 (N = 61), ≧median) | PFS (median months) ([1]; High HER3 (N = 61), ≧median) | OS (median months) ([1]; Low HER3 (N = 61), <median) | PFS (median months) ([1]; Low HER3 (N = 61), <median) | tolerability ([2]; in vivo, iv) | Tumor regression ([2]; patients evaluable for response, pertuzumab IV every 3 weeks) | confirmed partial responses ([2]; pertuzumab IV every 3 weeks) | pertuzumab activity (PFS) by HER2:HER3 expression [3] | pertuzumab activity (PFS) by HER3 expression [3] | pertuzumab activity (PFS) by HER3 expression ([1]; qRT-PCR HER3 cutoffs, FIGS. 14-15) | median survival ([4]; high HER3 expressing patients (greater than and equal to 75th percentile)) | median survival ([4]; low HER3 expressing patients (less than 75th percentile)) | outcomes in terms of PFS and OS by HER3 expression ([4]; patients with low HER3 expression vs high) | mean clearance [5] | mean terminal elimination half-life [5] |
| --- | --- | --- | --- | --- | --- | --- | --- | --- | --- | --- | --- | --- | --- | --- | --- | --- | --- |
| Cl.Nc1ccn([C@@H]2O[C@H](CO)[C@@H](O)C2(F)F)c(=O)n1 (single isomer, unassigned) [G + Placebo, 2′-deoxy-2′,2′-difluorocytidine monohydrochloride (b-isomer)] | 13.1 months | 2.6 months | 18.2 months | 5.5 months | 8.4 months | 1.4 months |  |  |  |  |  |  |  |  |  |  |  |
| pertuzumab: humanized HER2 antibody, HER dimerization inhibitor, comprising light and heavy chain amino acid sequences in SEQ ID NOS. 13 and 14 |  |  |  |  |  |  | generally well tolerated | 3 of 20 | Two | greatest in patients with high HER2:HER3 expressing cancer | greatest in patients with HER3 low expressing cancer | greatest in patients with HER3 low expressing tumors | 1.80 years | 3.31 years | better outcomes in terms of PFS and OS | 2.69 to 3.74 mL/day/kg | 15.3 to 27.6 days |
